Source: ChEMBL document CHEMBL1250444, “Nitric oxide activates TRP channels by cysteine S-nitrosylation” (Nat Chem Biol, 2006)
Changes are numbered by the printed parent chain. Calls of active or inactive are those of the source. No cut-off for these calls is given here.

Experiments:
[1] = molecular target: T1, Short transient receptor potential channel 5 (Homo sapiens) (UniProt Q9UL62); assay: Activation of TRPC5 expressed in BAEC expressing dominant negative mutant of TRPC5 assessed as increase in Ca2+ level from extracellular space at 300 uM
T1 sequence (whole entry): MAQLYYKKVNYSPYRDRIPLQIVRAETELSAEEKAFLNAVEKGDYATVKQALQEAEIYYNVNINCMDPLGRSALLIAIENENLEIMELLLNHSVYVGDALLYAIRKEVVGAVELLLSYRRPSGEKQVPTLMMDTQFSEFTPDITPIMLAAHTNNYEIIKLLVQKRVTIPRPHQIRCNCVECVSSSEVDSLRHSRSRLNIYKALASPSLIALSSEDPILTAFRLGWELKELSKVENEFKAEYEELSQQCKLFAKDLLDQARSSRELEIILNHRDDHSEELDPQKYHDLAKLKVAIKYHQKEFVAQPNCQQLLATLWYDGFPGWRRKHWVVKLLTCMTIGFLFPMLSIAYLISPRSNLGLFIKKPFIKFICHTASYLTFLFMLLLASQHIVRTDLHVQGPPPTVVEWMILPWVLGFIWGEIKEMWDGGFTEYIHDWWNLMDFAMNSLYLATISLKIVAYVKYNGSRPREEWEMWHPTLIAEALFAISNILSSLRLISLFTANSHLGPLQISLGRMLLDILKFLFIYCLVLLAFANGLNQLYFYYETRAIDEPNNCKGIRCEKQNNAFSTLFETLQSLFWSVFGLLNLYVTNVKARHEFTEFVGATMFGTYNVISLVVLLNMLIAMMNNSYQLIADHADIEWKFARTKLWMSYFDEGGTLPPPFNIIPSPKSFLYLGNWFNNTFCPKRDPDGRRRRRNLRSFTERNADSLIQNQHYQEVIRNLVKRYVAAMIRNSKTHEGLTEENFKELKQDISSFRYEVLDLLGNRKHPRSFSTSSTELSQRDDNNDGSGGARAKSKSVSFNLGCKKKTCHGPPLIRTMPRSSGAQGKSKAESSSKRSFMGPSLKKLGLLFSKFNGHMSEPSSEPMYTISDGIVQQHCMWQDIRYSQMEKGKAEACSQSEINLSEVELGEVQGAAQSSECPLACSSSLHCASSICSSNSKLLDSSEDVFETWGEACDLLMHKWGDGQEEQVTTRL

[2] = system: HEK293; assay: Activation of rat TRPV1 Cys621 mutant expressed in HEK cells assessed as increase in Ca2+ level from extracellular space at 0.1 to 1 mM; assay type: cell-based
[3] = system: T2, Short transient receptor potential channel 5 (Homo sapiens), Q9UL62 [C558S]; assay: Decrease in TRPC5 C558S mutant S-nitrosylation in HEK cells assessed as inhibition of incorporation of DTNB-2Bio at 30 uM relative to control; assay type: cell-based; conditions: HEK293
T2 sequence (whole entry): T1 sequence (whole entry) with C558S

[4] = system: HEK293; assay: Activation of rat TRPV1 Cys616 mutant expressed in HEK cells assessed as increase in Ca2+ level from extracellular space at 10 uM; assay type: cell-based

SMILES	Activity [1]	Activity [2]	Activity [3]	Activity [4]
CC(=O)N[C@@H](C(=O)O)C(C)(C)SN=O (racemic)	inactive	inactive		
O=[N+]([O-])c1ccc(SSc2ccc([N+](=O)[O-])cn2)nc1			Active	inactive
